# Results: patent US9006241B2, “Pyrimidine derivatives” (Noviga Research AB, priority 2011, dated 2015)
# Legend:
# Type in all cases: cell-based
# HL-60 (leukemia) = assay: FMCA, HL-60; conditions: Homo sapiens, HL-60 leukemia cells
# Source text: (§1) The Fluorometric Microculture Cytotoxicity Assay, FMCA (Larsson, R., et al.; Anticancer Res, 1989, 9, 1111-1119), is a three day non-clonogenic microplate-based cell viability assay used for measurement of the cytotoxic and/or cytostatic effect of compounds in vitro (Lindhagen, E. et al.; Nat. Protoc., 2008, 3, 1364-1369). FMCA represents a valuable method to measure cytotoxicity in a number of cell types, both cell lines and primary cells from patients (Larsson, R., et al.; Int. J. Cancer, 1992, 50, 177-185; Fridborg, H., et al.; Eur. J. Cancer, 1999. 35, 424-432; Dhar, S., et al.; Br. J. Cancer, 1996, 74, 888-896).
# (§2) FMCA is based on the principle that fluorescein diacetate (FDA) is converted to the fluorescent probe fluorescein by esterases in the plasma membranes of living cells. For experiments, 96 or 384-well microplates are prepared with compounds and stored at −70° C. until use. Cells are then seeded into the drug-prepared plates and placed in an incubator for 72 h. On the last day of incubation, the plates are washed and a buffer containing FDA is added and incubated with the cells for 45 minutes. Finally the fluorescence per well is measured in a fluorometer and a Survival Index % (SI) for each compound-treated well is calculated with the equation: Compound-treated cells minus blank divided by control cells minus blank. A high SI-value indicates a large percentage of living cells and vice versa.
# (§3) For dose-response experiments, 384-well plates were prepared as follows:
# (§4) Compounds of the invention as well comparative kinase inhibitors sorafenib sunitinib, dasatinib, pazopanib and a reference compound disclosed in WO 2009/071535 (compound #107) were diluted with PBS to a concentration ten-times higher than the desired starting concentration. Then, a Biomek 2000 liquid handling system was employed to serially dilute the compounds in a deep-well 384-well plate. From this plate, assay plates containing 5 μl compound per well were prepared with the Biomek 2000. Certain compounds precipitated when diluted with PBS, and these compounds were therefore prepared in a 96-well plate manually as described above using culture medium RPMI 1640 instead of PBS.
# (§5) The compounds were also tested at five concentrations, with five times serial dilution on the following cell types: CCRF-CEM, hTERT-RPE1 (normal retinal epithelial cells), hRPTEpiC (normal renal cells), and peripheral blood mononuclear cells (PBMC). Each experiment was performed three times, except for PBMC and hRPTEpiC, which were performed twice. SI-values were calculated, graphs were plotted using GraphPadPrism 5.0 (GraphPad Software Inc. La Jolla, Calif.) and IC50-values for each cell type and compound were determined from the curves.
# (§6) The compounds of the invention were also tested on further cancer cell lines related to breast cancer (MDA-MB-231; see e.g. Cailleau, R., et al.; J. Natl. Cancer Inst., 1974, 53, 661-674), teniposide-resistant leukemia (CEM/VM1 see e.g. Danks, M., et al.; Cancer Res., 1987, 47, 1297-1301), leukemia (HL-60; see e.g. Collins, S., et al.; Nature, 1977, 270, 347-349), doxorubicin-resistant lung cancer (H69AR; see e.g. Mirski, S., et al.; Cancer Res., 1987, 47, 2594-2598), myeloma (RPMI 8226; see e.g. Matsuoka, Y., et al.; Proc. Soc. Exp. Biol. Med., 1967, 125, 1246-1250), doxorubicin-resistant myeloma (8226/Dox40; see e.g. Dalton, W., et al.; Blood, 1989, 15, 747-752), lymphoma (U-937, see e.g. Sundström, C., et al.; Int. […]
# [1] = test system: MDA-MB-231 (breast cancer); assay: FMCA, MDA-MB-231; conditions: Homo sapiens, MDA-MB-231 breast cancer cells
# Source text: as §1, §2, §3, §4, §5, §6
# PC-3 (prostate cancer) = assay: FMCA, PC-3; conditions: PC-3 prostate cancer cells
# Source text: as §1, §2, §3, §4, §5, §6
# [2] = test system: BxPC-3 (pancreatic cancer); assay: FMCA, BxPC-3; conditions: Homo sapiens, BxPC-3 pancreatic cancer cells
# Source text: as §1, §2, §3, §4, §5, §6
# [3] = test system: 8226/Dox40 (doxorubicin-resistant myeloma); assay: FMCA, 8226/Dox40; conditions: 8226/Dox40 doxorubicin-resistant myeloma cells
# Source text: as §1, §2, §3, §4, §5
# as §6, with “Int. J. Cancer, 1976, 17, 565-577), vincristin-resistant lymphoma (U-937-vcr; see e.g. Botling, J., et al.; Int. J. Cancer, 1994, 58, 269-274), ovarian cancer (A2780; see e.g. Hamilton, T., et al.; Semin. Oncol., 1984, 11, 285-298), doxorubicin-resistant ovarian cancer (A2780/Adr), cisplatin-resistant ovarian cancer (A2780/Cis; see e.g. Behrens, B., et al. Cancer Res. 1987, 47, 414-418), pancreatic cancer (PANC-1, BxPC-3, and MIA PaCa-2; see e.g. Lieber, M., et al.; Int. J. Cancer, 1975, 15, 741-747; Loor, R., et al.; Clin. Lab.” for “Int.”
# [4] = test system: CEM/VM1 (teniposide-resistant leukemia); assay: FMCA, CEM/VM1; conditions: Homo sapiens, CEM/VM1 teniposide-resistant leukemia cells
# Source text: as §1, §2, §3, §4, §5
# as §6, with “Int. J. Cancer, 1976, 17, 565-577), vincristin-resistant lymphoma (U-937-vcr; see e.g. Botling, J., et al.; Int. J. Cancer, 1994, 58, 269-274), ovarian cancer (A2780; see e.g. Hamilton, T., et al.; Semin. Oncol., 1984, 11, 285-298), doxorubicin-resistant ovarian cancer (A2780/Adr), cisplatin-resistant ovarian cancer (A2780/Cis; see e.g. Behrens, B., et al. Cancer Res. 1987, 47, 414-418), pancreatic cancer (PANC-1, BxPC-3, and MIA PaCa-2; see e.g. Lieber, M., et al.; Int. J. Cancer, 1975, 15, 741-747; Loor, R., et al.; Clin. Lab.” for “Int.”
# A2780 (ovarian cancer) = assay: FMCA, A2780; conditions: Homo sapiens, A2780 ovarian cancer cells
# Source text: as §1, §2, §3, §4, §5
# as §6, with “Int. J. Cancer, 1976, 17, 565-577), vincristin-resistant lymphoma (U-937-vcr; see e.g. Botling, J., et al.; Int. J. Cancer, 1994, 58, 269-274), ovarian cancer (A2780; see e.g. Hamilton, T., et al.; Semin. Oncol., 1984, 11, 285-298), doxorubicin-resistant ovarian cancer (A2780/Adr), cisplatin-resistant ovarian cancer (A2780/Cis; see e.g. Behrens, B., et al. Cancer Res. 1987, 47, 414-418), pancreatic cancer (PANC-1, BxPC-3, and MIA PaCa-2; see e.g. Lieber, M., et al.; Int. J. Cancer, 1975, 15, 741-747; Loor, R., et al.; Clin. Lab.” for “Int.”
# [5] = test system: U-937-vcr (vincristin-resistant lymphoma); assay: FMCA, U-937-vcr; conditions: U-937-vcr vincristin-resistant lymphoma cells
# Source text: as §1, §2, §3, §4, §5
# as §6, with “Int. J. Cancer, 1976, 17, 565-577), vincristin-resistant lymphoma (U-937-vcr; see e.g. Botling, J., et al.; Int. J. Cancer, 1994, 58, 269-274), ovarian cancer (A2780; see e.g. Hamilton, T., et al.; Semin. Oncol., 1984, 11, 285-298), doxorubicin-resistant ovarian cancer (A2780/Adr), cisplatin-resistant ovarian cancer (A2780/Cis; see e.g. Behrens, B., et al. Cancer Res. 1987, 47, 414-418), pancreatic cancer (PANC-1, BxPC-3, and MIA PaCa-2; see e.g. Lieber, M., et al.; Int. J. Cancer, 1975, 15, 741-747; Loor, R., et al.; Clin. Lab.” for “Int.”
# [6] = test system: A2780/Adr (doxorubicin-resistant ovarian cancer); assay: FMCA, A2780/Adr; conditions: A2780/Adr doxorubicin-resistant ovarian cancer cells
# Source text: as §1, §2, §3, §4, §5
# as §6, with “Int. J. Cancer, 1976, 17, 565-577), vincristin-resistant lymphoma (U-937-vcr; see e.g. Botling, J., et al.; Int. J. Cancer, 1994, 58, 269-274), ovarian cancer (A2780; see e.g. Hamilton, T., et al.; Semin. Oncol., 1984, 11, 285-298), doxorubicin-resistant ovarian cancer (A2780/Adr), cisplatin-resistant ovarian cancer (A2780/Cis; see e.g. Behrens, B., et al. Cancer Res. 1987, 47, 414-418), pancreatic cancer (PANC-1, BxPC-3, and MIA PaCa-2; see e.g. Lieber, M., et al.; Int. J. Cancer, 1975, 15, 741-747; Loor, R., et al.; Clin. Lab.” for “Int.”
# U-937 (lymphoma) = assay: FMCA, U-937; conditions: Homo sapiens, U-937 lymphoma cells
# Source text: as §1, §2, §3, §4, §5
# as §6, with “Int. J. Cancer, 1976, 17, 565-577), vincristin-resistant lymphoma (U-937-vcr; see e.g. Botling, J., et al.; Int. J. Cancer, 1994, 58, 269-274), ovarian cancer (A2780; see e.g. Hamilton, T., et al.; Semin. Oncol., 1984, 11, 285-298), doxorubicin-resistant ovarian cancer (A2780/Adr), cisplatin-resistant ovarian cancer (A2780/Cis; see e.g. Behrens, B., et al. Cancer Res. 1987, 47, 414-418), pancreatic cancer (PANC-1, BxPC-3, and MIA PaCa-2; see e.g. Lieber, M., et al.; Int. J. Cancer, 1975, 15, 741-747; Loor, R., et al.; Clin. Lab.” for “Int.”
# [7] = test system: PANC-1 (pancreatic cancer); assay: FMCA, PANC-1; conditions: Homo sapiens, PANC-1 pancreatic cancer cells
# Source text: as §1, §2, §3, §4, §5, §6
# [8] = test system: A2780/Cis (cisplatin-resistant ovarian cancer); assay: FMCA, A2780/Cis; conditions: A2780cis, A2780/Cis cisplatin-resistant ovarian cancer cells
# Source text: as §1, §2, §3, §4, §5
# as §6, with “Int. J. Cancer, 1976, 17, 565-577), vincristin-resistant lymphoma (U-937-vcr; see e.g. Botling, J., et al.; Int. J. Cancer, 1994, 58, 269-274), ovarian cancer (A2780; see e.g. Hamilton, T., et al.; Semin. Oncol., 1984, 11, 285-298), doxorubicin-resistant ovarian cancer (A2780/Adr), cisplatin-resistant ovarian cancer (A2780/Cis; see e.g. Behrens, B., et al. Cancer Res. 1987, 47, 414-418), pancreatic cancer (PANC-1, BxPC-3, and MIA PaCa-2; see e.g. Lieber, M., et al.; Int. J. Cancer, 1975, 15, 741-747; Loor, R., et al.; Clin. Lab.” for “Int.”
# RPMI 8226 (myeloma) = assay: FMCA, RPMI 8226; conditions: Homo sapiens, RPMI 8226 myeloma cells
# Source text: as §1, §2, §3, §4, §5
# as §6, with “Int. J. Cancer, 1976, 17, 565-577), vincristin-resistant lymphoma (U-937-vcr; see e.g. Botling, J., et al.; Int. J. Cancer, 1994, 58, 269-274), ovarian cancer (A2780; see e.g. Hamilton, T., et al.; Semin. Oncol., 1984, 11, 285-298), doxorubicin-resistant ovarian cancer (A2780/Adr), cisplatin-resistant ovarian cancer (A2780/Cis; see e.g. Behrens, B., et al. Cancer Res. 1987, 47, 414-418), pancreatic cancer (PANC-1, BxPC-3, and MIA PaCa-2; see e.g. Lieber, M., et al.; Int. J. Cancer, 1975, 15, 741-747; Loor, R., et al.; Clin. Lab.” for “Int.”
# [9] = test system: H69AR (doxorubicin-resistant lung cancer); assay: FMCA, H69AR; conditions: Homo sapiens, H69AR doxorubicin-resistant lung cancer cells
# Source text: as §1, §2, §3, §4, §5
# as §6, with “Int. J. Cancer, 1976, 17, 565-577), vincristin-resistant lymphoma (U-937-vcr; see e.g. Botling, J., et al.; Int. J. Cancer, 1994, 58, 269-274), ovarian cancer (A2780; see e.g. Hamilton, T., et al.; Semin. Oncol., 1984, 11, 285-298), doxorubicin-resistant ovarian cancer (A2780/Adr), cisplatin-resistant ovarian cancer (A2780/Cis; see e.g. Behrens, B., et al. Cancer Res. 1987, 47, 414-418), pancreatic cancer (PANC-1, BxPC-3, and MIA PaCa-2; see e.g. Lieber, M., et al.; Int. J. Cancer, 1975, 15, 741-747; Loor, R., et al.; Clin. Lab.” for “Int.”
# [10] = test system: MIA PaCa-2 (pancreatic cancer); assay: FMCA, MIA PaCa-2; conditions: Homo sapiens, MIA PaCa-2 pancreatic cancer cells
# Source text: as §1, §2, §3, §4, §5, §6
# [11] = test system: CCRF-CEM cancer cells - leukemia; assay: Fluorometric Microculture Cytotoxicity Assay (FMCA), CCRF-CEM; conditions: Homo sapiens, 72 h incubation
# Source text: as §1, §2
# In subsequent experiments, compounds were tested, along with a number of approved cancer drugs (dasatinib, pazopanib, sorafenib, and sunitinib) as described above. Initially, the acute lymphoblastic leukemia cell line CCRF-CEM was used throughout. In the assay plates, medium was added to six empty wells (blank wells) and wells were filled with PBS and cell suspension and served as control wells. SI-values were then calculated for each compound-treated well as described above. All experiments were conducted twice and a new batch of plates was prepared for each experiment.
# as §3, §4, §5
compound,measurement,setting,value
"COc1ccc2[nH]cc(CCNc3nccc(Nc4ccc5[nH]c(CO)cc5c4)n3)c2c1 [Example 15, (5-{2-[2-(5-methoxy-1H-indol-3-yl)ethylamino]pyrimidin-4-ylamino}-1H-indol-2-yl)methanol]",EC50,HL-60 (leukemia),31 nM
same,EC50,[1],150 nM
same,EC50,PC-3 (prostate cancer),310 nM
same,EC50,[2],120 nM
same,EC50,[3],4.3 µM
same,EC50,[4],71 nM
same,EC50,A2780 (ovarian cancer),55 nM
same,EC50,[5],69 nM
same,EC50,[6],980 nM
same,EC50,U-937 (lymphoma),37 nM
same,EC50,[7],1400 nM
same,EC50,[8],96 nM
same,EC50,RPMI 8226 (myeloma),1400 nM
same,EC50,[9],120 nM
same,EC50,[10],58 nM
same,EC50,[11],27 nM
